Reference: PMC2064598 (The Journal of Cell Biology, 2006)

Assays:
hGrA = molecular target: T1, hGrA (Homo sapiens, UniProt P12544); assay: absorbance progress curve; type: biochemical
T1 sequence (P12544 29-262): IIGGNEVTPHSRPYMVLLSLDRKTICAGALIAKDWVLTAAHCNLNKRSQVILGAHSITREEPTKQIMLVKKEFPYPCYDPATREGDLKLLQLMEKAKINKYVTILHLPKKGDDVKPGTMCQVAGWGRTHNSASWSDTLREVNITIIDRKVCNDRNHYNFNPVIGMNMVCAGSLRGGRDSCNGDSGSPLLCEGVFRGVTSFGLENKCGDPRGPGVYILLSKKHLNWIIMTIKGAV

mGrA = molecular target: T2, mGrA (Mus musculus, UniProt P11032); assay: absorbance progress curve; type: biochemical
T2 sequence (P11032 29-260): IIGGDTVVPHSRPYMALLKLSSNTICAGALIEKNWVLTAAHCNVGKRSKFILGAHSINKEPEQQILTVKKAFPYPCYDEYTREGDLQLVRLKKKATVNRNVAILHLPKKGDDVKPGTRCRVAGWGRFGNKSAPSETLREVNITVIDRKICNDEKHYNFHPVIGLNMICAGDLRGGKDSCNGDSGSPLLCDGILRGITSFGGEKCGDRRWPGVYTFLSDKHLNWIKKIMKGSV

Structure (SMILES): NCCCC[C@H](NC(=O)OCc1ccccc1)C(=O)SCc1ccccc1 [benzyloxy-carbonyl-Lys-thiobenzyl ester]
- specific activity (hGrA): Progress curves of mGrA (closed boxes) and hGrA (open boxes) cleaving benzyloxy-carbonyl-Lys-thiobenzyl ester
- specific activity (mGrA): Progress curves of mGrA (closed boxes) and hGrA (open boxes) cleaving benzyloxy-carbonyl-Lys-thiobenzyl ester
